Experimental data from US9593123B2, “Triazolo[4,5-D]pyrimidine derivatives” (Hoffmann-La Roche Inc., priority 2013, dated 2017).
pEC50: −log10 of the molar value.

Key:
[1] = biological target: human CB2 receptor (Homo sapiens (Human), UniProt P34972); test: cAMP assay, CHO cells expressing human CB2 receptors; type: cell-based; conditions: functional cAMP assay, read-out: CB2 hcAMP EC50
Protocol: (§1) CHO cells expressing human CB1 or CB2 receptors are seeded 17-24 hours prior to the experiment 50.000 cells per well in a black 96 well plate with flat clear bottom (Corning Costar #3904) in DMEM (Invitrogen No. 31331), 1×HT supplement, with 10% fetal calf serum and incubated at 5% CO2 and 37° C. in a humidified incubator. The growth medium was exchanged with Krebs Ringer Bicarbonate buffer with 1 mM IBMX and incubated at 30° C. for 30 min. Compounds were added to a final assay volume of 100 μl and incubated for 30 min at 30° C. Using the cAMP-Nano-TRF detection kit the assay (Roche Diagnostics) was stopped by the addition of 50 μl lysis reagent (Tris, NaCl, 1.5% Triton X100, 2.5% NP40, 10% NaN3) and 50 μl detection solutions (20 μM mAb Alexa700-cAMP 1:1, and 48 μM Ruthenium-2-AHA-cAMP) and shaken for 2 h at room temperature. The time-resolved energy transfer is measured by a TRF reader (Evotec Technologies GmbH), equipped with a ND:YAG laser as excitation source. The plate is measured twice with the excitation at 355 nm and at the emission with a delay of 100 ns and a gate of 100 ns, total exposure time 10 s at 730 (bandwidth 30 nm) or 645 nm (bandwidth 75 nm), respectively. The FRET signal is calculated as follows: FRET=T730-Alexa730-P(T645-B645) with P=Ru730-B730/Ru645-B645, where T730 is the test well measured at 730 nM, T645 is the test well measured at 645 nm, B730 and B645 are the buffer controls at 730 nm and 645 nm, respectively. cAMP content is determined from the function of a standard curve spanning from 10 μM to 0.13 nM cAMP.
(§2) EC50 values were determined using Activity Base analysis (ID Business Solution, Limited). The EC50 values for a wide range of cannabinoid agonists generated from this assay were in agreement with the values published in the scientific literature.

[2] = biological target: human CB1 receptor (Homo sapiens (Human), UniProt P21554); test: cAMP assay, CHO cells expressing human CB1 receptors; type: cell-based; conditions: functional cAMP assay, read-out: CB1 hcAMP EC50
Protocol: as §1, §2

human CB1 receptor, sequence (P21554 whole entry): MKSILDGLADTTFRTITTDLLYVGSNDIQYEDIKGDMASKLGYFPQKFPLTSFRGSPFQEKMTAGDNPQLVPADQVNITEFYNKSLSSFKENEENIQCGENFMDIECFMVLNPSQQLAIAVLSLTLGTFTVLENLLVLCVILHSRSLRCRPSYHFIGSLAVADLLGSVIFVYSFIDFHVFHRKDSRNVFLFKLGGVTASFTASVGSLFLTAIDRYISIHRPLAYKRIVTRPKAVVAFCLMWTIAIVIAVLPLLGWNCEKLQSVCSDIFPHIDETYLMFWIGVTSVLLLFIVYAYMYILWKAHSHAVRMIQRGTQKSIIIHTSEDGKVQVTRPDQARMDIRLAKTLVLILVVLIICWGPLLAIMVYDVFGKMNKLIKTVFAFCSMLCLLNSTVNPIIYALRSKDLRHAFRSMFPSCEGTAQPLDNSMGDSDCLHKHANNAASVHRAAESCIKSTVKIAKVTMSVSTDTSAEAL
human CB2 receptor, sequence (P34972 whole entry): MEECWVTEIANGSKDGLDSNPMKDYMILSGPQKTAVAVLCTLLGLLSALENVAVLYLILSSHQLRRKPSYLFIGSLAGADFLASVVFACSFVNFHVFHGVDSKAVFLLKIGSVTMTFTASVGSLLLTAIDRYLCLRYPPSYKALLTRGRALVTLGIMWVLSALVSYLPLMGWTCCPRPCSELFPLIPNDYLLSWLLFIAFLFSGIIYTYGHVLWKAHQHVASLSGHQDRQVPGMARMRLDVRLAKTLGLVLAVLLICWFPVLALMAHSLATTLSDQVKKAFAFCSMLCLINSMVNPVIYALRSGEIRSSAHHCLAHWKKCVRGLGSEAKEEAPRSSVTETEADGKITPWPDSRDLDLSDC

C[C@@]1(O)CCN(c2nc(N3CCOCC3)nc3c2nnn3Cc2ccccc2Cl)C1 [Example 36, (3R)-1-[3-[(2-Chlorophenyl)methyl]-5-morpholin-4-yltriazolo[4,5-d]pyrimidin-7-yl]-3-methylpyrrolidin-3-ol]
pEC50 [1]: 6.66
pEC50 [2]: < 5.00

COc1ccc(Cn2nnc3c(N4CCC(F)(F)C4)nc(C4CC4)nc32)cc1 [Example 2, 5-Cyclopropyl-7-(3,3-difluoropyrrolidin-1-yl)-3-[(4-methoxyphenyl)methyl]triazolo [4,5-d]pyrimidine]
pEC50 [1]: 8.19
pEC50 [2]: < 5.00

C[C@@H](Oc1nc(N2CCC(F)(F)C2)c2nnn(Cc3ccccc3Cl)c2n1)C(F)(F)F [Example 51, 3-[(2-Chlorophenyl)methyl]-7-(3,3-difluoropyrrolidin-1-yl)-5-[(2R)-1,1,1-trifluoropropan-2-yl]oxytriazolo[4,5-d]pyrimidine]
pEC50 [1]: 8.68
pEC50 [2]: < 5.00

CC(=O)N[C@H]1CCN(c2nc(NC(C)(C)C)nc3c2nnn3Cc2ccccc2Cl)C1 [Example 97, N-[(3S)-1-[5-(tert-butylamino)-3-[(2-chlorophenyl)methyl]triazolo[4,5-d]pyrimidin-7-yl]pyrrolidin-3-yl]acetamide]
pEC50 [1]: 7.42
pEC50 [2]: < 5.00

CC(=O)N[C@H]1CCN(c2nc(OCC(C)(C)C)nc3c2nnn3Cc2ccccc2Cl)C1 [Example 77, N-[(3S)-1-[3-[(2-Chlorophenyl)methyl]-5-(2,2-dimethylpropoxy)triazolo[4,5-d]pyrimidin-7-yl]pyrrolidin-3-yl]acetamide]
pEC50 [1]: 7.24
pEC50 [2]: < 5.00

FC1(F)CCN(c2nc(N3CCC3)nc3c2nnn3Cc2ccccc2Cl)C1 [Example 9, 5-(Azetidin-1-yl)-3-[(2-chlorophenyl)methyl]-7-(3,3-difluoropyrrolidin-1-yl)triazolo [4,5-d]pyrimidine]
pEC50 [1]: 8.80
pEC50 [2]: 6.44

CCCCSc1nc(N2CCC(F)(F)C2)c2nnn(Cc3ccccc3Cl)c2n1 [Example 91, 5-Butylsulfanyl-3-[(2-chlorophenyl)methyl]-7-(3,3-difluoropyrrolidin-1-yl)triazolo [4,5-d]pyrimidine]
pEC50 [1]: 8.16
pEC50 [2]: < 5.00

CC(C)(O)COc1nc(N2CCC(F)(F)C2)c2nnn(Cc3ccccc3Cl)c2n1 [Example 58, 1-[3-[(2-Chlorophenyl)methyl]-7-(3,3-difluoropyrrolidin-1-yl)triazolo[4,5-d]pyrimidin-5-yl]oxy-2-methylpropan-2-ol]
pEC50 [1]: 7.80
pEC50 [2]: < 5.00

C[C@]1(O)CCN(c2nc(N3CCOCC3)nc3c2nnn3Cc2ccccc2C(F)(F)F)C1 [Example 33, (3S)-3-Methyl-1-[5-morpholin-4-yl-3-[[2-(trifluoromethyl)phenyl]methyl]triazolo[4,5-d]pyrimidin-7-yl]pyrrolidin-3-ol]
pEC50 [1]: 8.14
pEC50 [2]: < 5.00

C[C@H](Oc1nc(N2CCC(F)(F)C2)c2nnn(Cc3ccccc3C(F)(F)F)c2n1)C(F)(F)F [Example 68, 7-(3,3-Difluoropyrrolidin-1-yl)-3-[[2-(trifluoromethyl)phenyl]methyl]-5-[(2S)-1,1,1-trifluoropropan-2-yl]oxytriazolo[4,5-d]pyrimidine]
pEC50 [1]: 9.40
pEC50 [2]: < 5.00

CN(c1nc(N2CCC(F)(F)C2)c2nnn(Cc3ccccc3Cl)c2n1)C1CCC1 [Example 18, 3-[(2-Chlorophenyl)methyl]-N-cyclobutyl-7-(3,3-difluoropyrrolidin-1-yl)-N-methyltriazolo[4,5-d]pyrimidin-5-amine]
pEC50 [1]: 8.09
pEC50 [2]: 6.01

Clc1ccccc1Cn1nnc2c(N3CCCCC3)nc(N3CCCCC3)nc21 [Example 7, 3-[(2-Chlorophenyl)methyl]-5,7-di(piperidin-1-yl)triazolo[4,5-d]pyrimidine]
pEC50 [1]: 8.04
pEC50 [2]: < 5.00

CC(Oc1nc(N2CCC(F)(F)C2)c2nnn(Cc3ccccc3Cl)c2n1)C(F)(F)F (stereo not drawn) [Example 41, 3-[(2-Chlorophenyl)methyl]-7-(3,3-difluoropyrrolidin-1-yl)-5-(1,1,1-trifluoropropan-2-yloxy)triazolo[4,5-d]pyrimidine]
pEC50 [1]: 8.07
pEC50 [2]: < 5.00

COc1ccc(Cn2nnc3c(N4CC[C@](C)(O)C4)nc(NC(C)(C)C)nc32)cc1 [Example 30, (3S)-1-[5-(tert-Butylamino)-3-[(4-methoxyphenyl)methyl]triazolo[4,5-d]pyrimidin-7-yl]-3-methylpyrrolidin-3-ol]
pEC50 [1]: 7.05
pEC50 [2]: < 5.00

COCCS(=O)(=O)c1nc(N2CCC(F)(F)C2)c2nnn(Cc3ccccc3Cl)c2n1 [Example 96, 3-[(2-Chlorophenyl)methyl]-7-(3,3-difluoropyrrolidin-1-yl)-5-(2-methoxyethylsulfonyl)triazolo[4,5-d]pyrimidine]
pEC50 [1]: 8.29
pEC50 [2]: < 5.00

C[C@H](Oc1nc(N2CCC(F)(F)C2)c2nnn(Cc3ncccc3Cl)c2n1)C(F)(F)F [Example 70, 3-[(3-Chloropyridin-2-yl)methyl]-7-(3,3-difluoropyrrolidin-1-yl)-5-[(2S)-1,1,1-trifluoropropan-2-yl]oxytriazolo[4,5-d]pyrimidine]
pEC50 [1]: 8.29
pEC50 [2]: < 5.00

CC(C)COc1nc(N2CCC(F)(F)C2)c2nnn(Cc3ccccc3Cl)c2n1 [Example 54, 3-[(2-Chlorophenyl)methyl]-7-(3,3-difluoropyrrolidin-1-yl)-5-(2-methylpropoxy) triazolo[4,5-d]pyrimidine]
pEC50 [1]: 8.92
pEC50 [2]: < 5.00

Cc1noc(Cn2nnc3c(N4CCC(F)(F)C4)nc(O[C@@H](C)C(F)(F)F)nc32)n1 [Example 72, 5-[[7-(3,3-Difluoropyrrolidin-1-yl)-5-[(2S)-1,1,1-trifluoropropan-2-yl]oxytriazolo[4,5-d]pyrimidin-3-yl]methyl]-3-methyl-1,2,4-oxadiazole]
pEC50 [1]: 7.17
pEC50 [2]: < 5.00

FC1(F)CCN(c2nc(OCC3CC3)nc3c2nnn3Cc2ccccc2Cl)C1 [Example 47, 3-[(2-Chlorophenyl)methyl]-5-(cyclopropylmethoxy)-7-(3,3-difluoropyrrolidin-1-yl)triazolo[4,5-d]pyrimidine]
pEC50 [1]: 8.44
pEC50 [2]: < 5.00

CC(C)c1nc(N2CCC(F)(F)C2)c2nnn(Cc3ccccc3Cl)c2n1 [Example 3, 3-[(2-Chlorophenyl)methyl]-7-(3,3-difluoropyrrolidin-1-yl)-5-isopropyl-triazolo[4,5-d]pyrimidine]
pEC50 [1]: 9.30
pEC50 [2]: 6.11

CC1(COc2nc(N3CCC(F)(F)C3)c3nnn(Cc4ccccc4Cl)c3n2)COC1 [Example 50, 3-[(2-Chlorophenyl)methyl]-7-(3,3-difluoropyrrolidin-1-yl)-5-[(3-methyloxetan-3-yl)methoxy]triazolo[4,5-d]pyrimidine]
pEC50 [1]: 8.55
pEC50 [2]: < 5.00

FC1(F)CCN(c2nc(C3CCC3)nc3c2nnn3Cc2ccccc2Cl)C1 [Example 1, 3-[(2-Chlorophenyl)methyl]-5-cyclobutyl-7-(3,3-difluoropyrrolidin-1-yl)triazolo[4,5-d]pyrimidine]
pEC50 [1]: 9.00
pEC50 [2]: < 5.00

CC(O)CS(=O)(=O)c1nc(N2CCC(F)(F)C2)c2nnn(Cc3ccccc3Cl)c2n1 (stereo not drawn) [Example 95, 1-[3-[(2-Chlorophenyl)methyl]-7-(3,3-difluoropyrrolidin-1-yl)triazolo[4,5-d]pyrimidin-5-yl]sulfonylpropan-2-ol]
pEC50 [1]: 7.19
pEC50 [2]: < 5.00

CCCOc1nc(N2CCC(F)(F)C2)c2nnn(Cc3ccccc3Cl)c2n1 [Example 59, 3-[(2-Chlorophenyl)methyl]-7-(3,3-difluoropyrrolidin-1-yl)-5-propoxytriazolo[4,5-d]pyrimidine]
pEC50 [1]: 9.05
pEC50 [2]: < 5.00

COc1ccc(Cn2nnc3c(N4CC[C@H](NC(C)=O)C4)nc(NC(C)(C)C)nc32)cc1 [Example 21, N-[(3S)-1-[5-(tert-Butylamino)-3-[(4-methoxyphenyl)methyl]triazolo[4,5-d]pyrimidin-7-yl]pyrrolidin-3-yl]acetamide]
pEC50 [1]: 6.85
pEC50 [2]: < 5.00

FCCOc1nc(N2CCC(F)(F)C2)c2nnn(Cc3ccccc3Cl)c2n1 [Example 46, 3-[(2-Chlorophenyl)methyl]-7-(3,3-difluoropyrrolidin-1-yl)-5-(2-fluoroethoxy) triazolo[4,5-d]pyrimidine]
pEC50 [1]: 8.28
pEC50 [2]: < 5.00

Cc1nonc1Cn1nnc2c(N3CCC(F)(F)C3)nc(O[C@@H](C)C(F)(F)F)nc21 [Example 74, 3-[[7-(3,3-Difluoropyrrolidin-1-yl)-5-[(2S)-1,1,1-trifluoropropan-2-yl]oxytriazolo[4,5-d]pyrimidin-3-yl]methyl]-4-methyl-1,2,5-oxadiazole]
pEC50 [1]: 8.74
pEC50 [2]: < 5.00
